Measured values: patent US7879822B2, “Stabilized sulforaphane” (Pharmagra Labs, Inc., priority 2007, dated 2011)

Key:
[1] = Extended stability study of stabilized sulforaphane compositions by HPLC (Example 2); format: physicochemical; conditions: stored in a freezer
Method: The sulforaphane formulations were analyzed via HPLC (UV detection at 254 nm) using an internal standard (DEET) method. A sulforaphane standard (stored in a freezer) was used to determine the response factor for each analysis.
A ca. 300 mg (carefully weighed) formulation sample was dissolved in 8 mL of internal standard solution (DEET in DMF, ca 2 mg/mL). The amount of ISTD solution was also carefully weighed. The sample was further diluted with 8 mL of nitrogen sparged DI water. The samples were sonicated for ˜10 minutes and filtered through a 0.45 μm nylon filter. The samples were then analyzed by HPLC UV detection at 254 nm.
Chromatographic Conditions: • Column: Agilent Eclipse XDB-C18, 5 μm, 250×4.6 mm, […] @ 30° C. • Solvent A: 0.1% Formic acid in H2O • Solvent B: MeCN • Gradient: 5% to 100% Solvent B in Solvent A over 30 minutes • Flow: 1.5 mL/minute • Detector: UV 254 nm, ESI-MS (pos/neg) for confirmation • Retention Times: Sulforaphane: 9.2 minutes DEET: 15.5 minutes
Analysis Results: The results are presented as percent of the “time zero” load versus time.

[2] = Stability analysis of sulforaphane-cyclodextrin formulations by HPLC (Example 1); format: physicochemical; conditions: stored in a freezer
Method: Analysis Overview: The sulforaphane formulations were analyzed via HPLC (UV detection at 254 nm) using an internal standard (DEET) method. An assumption is made that the sulforaphane completely disassociates from the cyclodextrin under the chromatographic conditions. A sulforaphane standard (stored in a freezer) is used to determine the response factor for each analysis.
Storage Conditions: The samples were stored under three conditions: Capped and at room temperature, capped and stored in the freezer (−30° C.), and open and stored in a 40° C. oven. These samples were analyzed for sulforaphane load over time. The stabilization of the different samples and different storage conditions may be seen in FIGS. 3-5.
Sample Preparation Example: A 20 mg to 50 mg (carefully weighed) formulation sample is dissolved in 1 mL of internal standard solution (DEET in DMF). The amount of ISTD solution is also carefully weighed. The sample is further diluted with 1 mL of nitrogen sparged deionized water. The samples are sonicated for approximately ten minutes and filtered through ha 0.45 μm nylon filter. The samples are then analyzed by HPLC UV detection at 254 nm.
Analysis Results: The results are presented as percent of theoretical load versus time (The calculation for theoretical was described above.)

stability of the standard (HPLC response factor over all analyses) [1]: stable | stability of the standard (HPLC response factor over all analyses) [2]: stable
SMILES: C[S+]([O-])CCCCN=C=S (racemic) [sulforaphane]
